In test [1] the target is endothelin receptors (human placenta membranes). Briefly: Inhibition of endothelin binding to human placenta membranes (125I-endothelin). As to conditions: 125I-endothelin 20 pM, 20° C. for 2 hours or 4° C. for 24 hours, read-out: IC50 (concentration required to inhibit 50% of the specific binding of 125I-endothelin). The procedure:
I. Inhibition of endothelin binding to human placenta membranes (see. Life Sci 44:1429 (1989))
Human placenta is homogenized in 5 mM Tris buffer, pH 7.4, which contains 1 mM MgCl2 and 250 mM sucrose. The homogenizate is centrifuged at 4° C. and 3000 g for 15 minutes, the supernatant containing the plasma membrane fraction is centrifuged with 72000 g for 30 minutes and the precipitate is washed with 75 mM Tris buffer, pH 7.4, which contains 25 mM MgCl2. Thereafter, precipitate obtained from in each case 10 g of original tissue is suspended in 1 ml of 75 mM Tris buffer, pH 7.4, containing 25 mM MgCl2 and 250 mM sucrose, and freeze-dried at --20° C. in 1 ml aliquots.
For the binding assay, the freeze-dried membrane preparations are thawed and, after centrifugation at 20° C. and 25000 g for 10 minutes, re-suspended in assay buffer (50 mM Tris buffer, pH 7.4, containing 25 mM MnCl2, 1 mM EDTA and 0.5% of bovine serum albumin). 100 μl of this membrane suspension containing 70 μg of protein are incubated with 50 μl of ^125 I-endothelin (specific activity 2200 Ci/mMol) in assay buffer (25000 cpm, final concentration 20 pM) and 100 μl of assay buffer containing varying concentrations of test compound. The incubation is carried out at 20° C. for 2 hours or at 4° C. for 24 hours. The separation of free and membrane-bound radioligands is carried out by filtration over a glass fiber filter.
The inhibitory activity of compounds of formula I determined in test procedure I is given in Table 1 as the IC50, that as the concentration […] which is required to inhibit 50% of the specific binding of ^1251 -endothelin.

A further test concerns isolated rat aorta rings. Briefly: Endothelin-induced contractions in isolated rat aorta rings. The arrangement: species or system rat (Wistar-Kyoto). The settings on record: in the absence of test compounds; endothelium removed; 37° C.; read-out: EC50 of endothelin (concentration required for a half-maximum contraction). The procedure:
II. Inhibition of endothelin-induced contractions in isolated rat aorta rings
Rings with a length of 5 mm were cut out from the thorax aorta of adult Wistar-Kyoto rats. The endothelium was removed by lightly rubbing the internal surface. Each ring was immersed at 37° C. in 10 ml of Krebs-Henseleit solution in an isolated bath while gassing with 95% O2 and 5% CO2. The isometric stretching of the rings was measured. The rings were stretched to a pre-tension of 3 g. After incubation for 10 minutes with the test compound or vehicle cumulative dosages of endothelin-1 were added. The activity of the test compound was determined by calculating the dosage ratios, i.e. the shift to the right (shift to higher values) of the EC50 of endothelin induced by 100 μM of test compound, with EC50 denoting the endothelin concentration required for a half-maximum contraction. […] The EC50 of endothelin in the absence of test compounds is 0.3 nM.

For the molecule `COc1ccc(Cl)c(Oc2c(COCC(O)CO)nc(N3CCOCC3)nc2NS(=O)(=O)c2ccc(C(C)(C)C)cc2)c1` (racemic) [Example 13, (R,S)-4-tert-butyl-N-[5-(2-chloro-5-methoxy-phenoxy)-6-(2,3-dihydroxy-propoxymethyl)-2-(morpholin-4-yl)-pyrimidin-4yl]-benzenesulphonamide], the IC50 in test [1] came out at 182 nM.
As for `COc1ccc(Cl)c(Oc2c(CO)nc(N3CCOCC3)nc2NS(=O)(=O)c2ccc(C(C)(C)C)cc2)c1` [Example 3, 4-tert-butyl-N-[5-(2-chloro-5-methoxy-phenoxy)-6-hydroxymethyl-2-(morpholin-4-yl)-pyrimidin-4-yl]-benzenesulphonamide], the IC50 in test [1] was determined as 130 nM.
Take `COc1ccc(Cl)c(Oc2c(COCCO)nc(N3CCOCC3)nc2NS(=O)(=O)c2ccc(C(C)(C)C)cc2)c1` [Example 5, 4-tert-butyl-N-[5-(2-chloro-5methoxy-phenoxy)-6-(2-hydroxy-ethoxymethyl)-2-(morpholin-4-yl)-pyrimidin-4-yl]-benzenesulphonamide]: the IC50 in test [1] worked out at 35 nM.
Regarding `COc1ccc(Cl)c(Oc2c(COCCO)ncnc2NS(=O)(=O)c2ccc(C(C)(C)C)cc2)c1` [Example 10, 4-tert-Butyl-N-[5-(2-chloro-5-methoxy-phenoxy)-6-(2-hydroxy-ethoxy-methyl)-pyrimidin-4-yl]-benzenesulphonamide], in test [1], the IC50 was found to be 184 nM.
“endothelin: endothelin-1, agonist added in cumulative dosages to contract rat aorta rings”: in the test with isolated rat aorta rings, the EC50 worked out at 0.3 nM.

The values are drawn from patent US5420129A, “Phenylsulfonylamide pyrimidine” (Hoffmann-La Roche Inc., priority 1992, dated 1995).
